Source: patent publication US8642597B2, “Pyrazole compounds for controlling invertebrate pests” (BASF SE, priority 2007, dated 2014)

Columns and labels:
Type in all cases: in vivo
[1] = tested on: Cowpea Aphid (aphis craccivora); assay: Cowpea aphid (aphis craccivora), spray on potted cowpea plants; settings: population reduction assessed after 24, 72 and 120 hours, in comparison with untreated controls
Description: The active compounds were formulated in 50:50 (vol:vol) acetone:water. The test solution was prepared at the day of use.
Potted cowpea plants colonized with 100-150 aphids of various stages were sprayed after the pest population had been recorded. Population reduction was assessed after 24, 72, and 120 hours.

[2] = tested on: Green Peach Aphid (Myzus persicae, Mixed Life Stages); assay: Green peach aphid (Myzus persicae, mixed life stages), pepper leaf dip test; settings: foliar, 120 h, after 5 days, in comparison with untreated controls
Source text: (§1) The active compounds were formulated in 50:50 (vol:vol) acetone:water and 100 ppm Kinetica™ surfactant.
Pepper plants in the 2nd leaf-pair stage (variety ‘California Wonder’) were infested with approximately 40 laboratory-reared aphids by placing infested leaf sections on top of the test plants. The leaf sections were removed after 24 hr. The leaves of the intact plants were dipped into gradient solutions of the test compound and allowed to dry. Test plants were maintained under fluorescent light (24 hour photoperiod) at about 25° C. and 20-40% relative humidity. Aphid mortality on the treated plants, relative to mortality on check plants, was determined after 5 days.

[3] = tested on: Vetch Aphid (Megoura viciae); assay: Vetch aphid (Megoura viciae), bean leaf disk microtiterplate test; settings: foliar, 144 h, concentration of the test solution 2500 mg/L, 6 days
Description: The active compounds were formulated in 1:3 (vol:vol) DMSO:water with different concentrations of formulated compounds.
Bean leaf disks were placed into microtiterplates filled with 0.8% agar-agar and 2.5 ppm OPUS™. The leaf disks were sprayed with 2.5 μl of the test solution and 5 to 8 adult aphids were placed into the microtiterplates which were then closed and kept at 23±1° C. and 50±5% relative humidity under fluorescent light for 6 days. Mortality was assessed on the basis of vital, reproduced aphids. Aphid mortality and fecundity was then visually assessed.

[4] = tested on: Cotton Aphid (aphis gossypii, Mixed Life Stages); assay: Cotton aphid (aphis gossypii, mixed life stages), cotyledon dip test; settings: 120 h, mortality counts after 5 days, in comparison with untreated controls
Source text: as §1
Cotton plants at the cotyledon stage (one plant per pot) were infested by placing a heavily infested leaf from the main colony on top of each cotyledon. The aphids were allowed to transfer to the host plant overnight, and the leaf used to transfer the aphids was removed. The cotyledons were dipped in the test solution and allowed to dry. After 5 days, mortality counts were made.

[5] = tested on: Boll Weevil (Anthonomus grandis); assay: Boll weevil (Anthonomus grandis), insect diet microtiter plate test; settings: 120 h, concentration of the test solution 2500 mg/L, egg and larval mortality after 5 days
Description: The compounds were formulated in 75:25 (vol:vol) water:DMSO.
For evaluating control of boll weevil (Anthonomus grandis) the test unit consisted of 24-well-microtiter plates containing an insect diet and 20-30 A. grandis eggs. Different concentrations of formulated compounds were sprayed onto the insect diet at 20 μl, using a custom built micro atomizer, at two replications. After application, the microtiter plates were incubated at 23±1° C. and 50±5% relative humidity for 5 days. Egg and larval mortality was then visually assessed.

| Compound | mortality at 300 ppm [1] | mortality at 300 ppm [2] | mortality at 2500 µg/mL [3] | mortality at 300 ppm [4] | mortality at 2500 µg/mL [5] |
| --- | --- | --- | --- | --- | --- |
| CC(C)c1c(C(=O)Nc2cccnc2)cnn1-c1ccccc1 [Compound 120] | ≥ 75% | ≥ 50% | ≥ 80% | ≥ 75% |  |
| CN(C(=O)c1cnn(C)c1)c1cccnc1 [Compound 177] | ≥ 75% | ≥ 50% |  | ≥ 75% |  |
| N#CN(C(=O)c1cnn(C(F)F)c1C(F)F)c1cccnc1 [Compound 210] | ≥ 75% | ≥ 50% | ≥ 80% | ≥ 75% |  |
| CCCN(C(=O)c1cn(C)nc1C(F)(F)F)c1cccnc1 [Compound 202] | ≥ 75% | ≥ 50% | ≥ 80% | ≥ 75% |  |
| O=C(Nc1cccnc1)c1cnn(-c2ccc(F)cc2)c1I [Compound 124] | ≥ 75% | ≥ 50% | ≥ 80% | ≥ 75% |  |
| Cc1cc(C(=O)Nc2cccnc2)n(C)n1 [Compound 3] | ≥ 75% | ≥ 50% | ≥ 80% | ≥ 75% |  |
| Cc1nn(C)cc1C(=O)Nc1cccnc1 [Compound 70] | ≥ 75% | ≥ 50% |  | ≥ 75% |  |
| CCS/C(=N\c1cccnc1)c1cn(C)nc1C(F)(F)F [Compound 243] | ≥ 75% | ≥ 50% | ≥ 80% | ≥ 75% | 100% |
| CCc1c(C(=O)Nc2cccnc2)cnn1-c1ccc([N+](=O)[O-])cc1 [Compound 144] | ≥ 75% | ≥ 50% | ≥ 80% | ≥ 75% |  |
| Cn1cc(C(=O)Nc2cccnc2)c(OC(F)F)n1 [Compound 110] | ≥ 75% | ≥ 50% | ≥ 80% | ≥ 75% | 100% |
| Cc1cc(C(=O)Nc2cccnc2)nn1C [Compound 10] | ≥ 75% | ≥ 50% |  | ≥ 75% |  |
| O=C(Nc1cccnc1)c1cnn(-c2cccc([N+](=O)[O-])c2)c1C(F)F [Compound 153] |  |  | ≥ 80% |  | 100% |
| CN(C(=O)c1cnn(C(F)F)c1)c1cccnc1 [Compound 222] | ≥ 75% | ≥ 50% |  | ≥ 75% |  |
| CC(C)c1c(C(=O)Nc2cccnc2)cnn1C [Compound 90] | ≥ 75% |  |  |  |  |
| O=C(Nc1cccnc1)c1cnn(-c2c(F)cccc2F)c1C(F)F [Compound 162] |  |  | ≥ 80% |  | 100% |
| CCCCCCCn1cc(C(=O)Nc2cccnc2)cn1 [Compound 140] |  | ≥ 50% | ≥ 80% |  |  |
| Cc1ccccc1-n1ncc(C(=O)Nc2cccnc2)c1C(F)F [Compound 156] | ≥ 75% | ≥ 50% | ≥ 80% | ≥ 75% | 100% |
| O=C(Nc1cccnc1)c1cnn(-c2ccccn2)c1 [Compound 105] |  | ≥ 50% |  | ≥ 75% | 100% |
| CC(C)N(C(=O)c1cn(C)nc1C(F)(F)F)c1cccnc1 [Compound 130] |  | ≥ 50% | ≥ 80% | ≥ 75% |  |
| CCn1cc(C(=O)N(C)c2cccnc2)cn1 [Compound 187] | ≥ 75% | ≥ 50% |  | ≥ 75% |  |
| O=C(Nc1cccnc1)c1cnn(C(F)(F)F)c1 [Compound 205] | ≥ 75% | ≥ 50% | ≥ 80% | ≥ 75% |  |
| Cc1c(C(=O)Nc2cccnc2)cnn1C(F)F [Compound 208] | ≥ 75% | ≥ 50% |  | ≥ 75% |  |
| Cc1c(C(=O)Nc2cccnc2)cnn1-c1ccc(F)cc1 [Compound 165] | ≥ 75% | ≥ 50% | ≥ 80% | ≥ 75% |  |
